Test results published in US6444850B1, “Fungicidial compounds having a fluorovinyloxphyenyl moiety and process for the preparation thereof” (priority 1997, dated 2002).

What was measured:
[1] = system: Pyricularia oryzae Carvara KA301; assay type: in vivo; settings: for C. V. (%) RCB: 50 ppm, control value, rice blast; for C. V. (%) Fungicidal Activities against RCB at 10 ppm / C. V. (%) Fungicidal Activities against RCB at 10 ppm (TABLE 6): sprayed on Nakdong rice plant, control value from lesion area
Phytophthora infestans = assay type: in vivo; settings: 50 ppm; control value, tomato late blight
Erysiphae graminis = assay: Fungicidal activity against barley powdery mildew (BPM) disease; assay type: in vivo; settings: for C. V. (%), Fungicidal activities against TLB at 10 ppm: Table 9 (Test Example 6); for C. V. (%) BPM: 50 ppm, control value, barley powdery mildew
Botrytis cinerae = assay: Fungicidal activity against cucumber gray mold rot (CGM) disease; assay type: in vivo; settings: 50 ppm, control value
Rhizoctonia solani AG-1 = assay: Fungicidal activity against rice sheath blight (RSB) disease; settings: 50 ppm, control value
Protocol: 50 ml of the resulting solution was sprayed on leaves of a host plant. The plant was kept at room temperature for 24 hours to let the solvent evaporate, and then, a pathogenic fungus was inoculated thereonto. The plant was held in a humidity chamber for 24 hours, transferred to an plant growth room kept at 20 to 27° C. and a relative humidity of 60 to 80% and kept to induce disease. Subsequently, the lesion area(L.A.) attacked by the pathogenic fungus was measured according to a method of Cho(Cho, K. Y., Search Report by Korea Research Institute of Chemical Technology (1989))”. This procedure was repeated twice for each test. 10% Acetone solution containing 250 ppm of Tween-20 was used as a control.
The fungicidal activity of the compound of the present invention is repressed by a control value (C.V.) calculated as; [formula]
Rhizoctonia solani AG-1 was cultured on a PDA medium(potato 200 g, dextrose 20 g, agar 20 g and distilled water 1 l) for 3 days and the agar disc (diameter 0.6 cm) was inoculated and cultured on sterilized wheat bran medium in a 1 l bottle at 26 to 28° C. for 7 days. A mycelial mass was ground using a homogenizer, inoculated uniformly on soil of a pot wherein a Nakdong rice plant having 2 or 3 leaves and an height of 5 cm grew, and kept in humidity polyvinyl chamber for 5 days to induce RSB. L.A. on a leaf sheath was measured to calculate an C.V.

Puccinia recondita = assay: Fungicidal activity against wheat leaf rust (WLR) disease; assay type: in vivo; settings: for C. V. (%), Fungicidal Activities against WLB at 10 ppm: Table 8 (Test Example 5); for C. V. (%) WLR: 50 ppm, control value, wheat leaf rust

Structure (SMILES) | C. V. (%) RCB [1] [%] | C. V. (%) TLB (Phytophthora infestans) [%] | C. V. (%), Fungicidal activities against TLB at 10 ppm (Erysiphae graminis) [%] | C. V. (%) BPM (Erysiphae graminis) [%] | C. V. (%) CGM (Botrytis cinerae) [%] | C. V. (%) RSB (Rhizoctonia solani AG-1) [%] | C. V. (%), Fungicidal Activities against WLB at 10 ppm (Puccinia recondita) [%] | C. V. (%) WLR (Puccinia recondita) [%] | C. V. (%) Fungicidal Activities against RCB at 10 ppm [1] [%] | C. V. (%) Fungicidal Activities against RCB at 10 ppm (TABLE 6) [1] [%]
CON=C(C(=O)OC)c1ccccc1COc1cccc(OC(F)=C(c2cccc(C)c2)C(F)(F)F)c1 [Compound 51] | 41 | 3 | 98 | 100 | 0 | 60 | 90 | 100 | – | –
CNC(=O)C(=NOC)c1ccccc1COc1cccc(OC(F)=C(c2cccc(C)c2)C(F)(F)F)c1 [Compound 52] | 95 | 55 | 100 | 100 | 28 | 90 | 100 | 100 | 95 | 95
COC=C(C(=O)OC)c1ccccc1COc1cccc(OC(F)=C(c2ccc(C)cc2)C(F)(F)F)c1 [Compound 53] | 100 | 0 | 96 | 100 | 55 | 50 | 99 | 100 | – | –
CNC(=O)C(=COC)c1ccccc1COc1cccc(OC(F)=C(c2ccc(C)cc2)C(F)(F)F)c1 [Compound 54] | 16 | 20 | – | 41 | 9 | 20 | – | 16 | – | –
CON=C(C(=O)OC)c1ccccc1COc1cccc(OC(F)=C(c2ccc(C)cc2)C(F)(F)F)c1 [Compound 55] | 100 | 85 | 97 | 100 | 0 | 30 | – | 100 | 94 | 94
CNC(=O)C(=NOC)c1ccccc1COc1cccc(OC(F)=C(c2ccc(C)cc2)C(F)(F)F)c1 [Compound 56] | 97 | 48 | 100 | 100 | 0 | 65 | 100 | 100 | 92 | 92
COC(=O)C(=CSC)c1ccccc1COc1cccc(OC(F)=C(c2ccc(C)cc2)C(F)(F)F)c1 [Compound 57] | 53 | 40 | – | 98 | 9 | 45 | – | 96 | – | –
CCc1ccc(C(=C(F)Oc2cccc(OCc3ccccc3C(=COC)C(=O)OC)c2)C(F)(F)F)cc1 [Compound 58] | 90 | 0 | 99 | 100 | 25 | 40 | 95 | 100 | – | –
CCc1ccc(C(=C(F)Oc2cccc(OCc3ccccc3C(=COC)C(=O)NC)c2)C(F)(F)F)cc1 [Compound 59] | 12 | 33 | – | 0 | 0 | 33 | – | 0 | – | –
CCc1ccc(C(=C(F)Oc2cccc(OCc3ccccc3C(=NOC)C(=O)OC)c2)C(F)(F)F)cc1 [Compound 60] | 0 | 18 | 97 | 100 | 0 | 40 | 93 | 98 | – | –
CCc1ccc(C(=C(F)Oc2cccc(OCc3ccccc3C(=NOC)C(=O)NC)c2)C(F)(F)F)cc1 [Compound 61] | 100 | 64 | 100 | 100 | 5 | 50 | 100 | 100 | 96 | 96
CCCCc1ccc(C(=C(F)Oc2cccc(OCc3ccccc3C(=COC)C(=O)OC)c2)C(F)(F)F)cc1 [Compound 62] | 0 | 3 | – | 98 | 28 | 35 | – | 93 | – | –
COC=C(C(=O)OC)c1ccccc1COc1cccc(OC(F)=C(c2ccc(C)c(C)c2)C(F)(F)F)c1 [Compound 63] | 75 | 25 | 100 | 100 | 25 | 40 | – | 100 | – | –
CNC(=O)/C(=C/OC)c1ccccc1COc1cccc(OC(F)=C(c2ccc(C)c(C)c2)C(F)(F)F)c1 [Compound 64] | 16 | 22 | – | 0 | 0 | 0 | – | 0 | – | –
CO/N=C(/C(=O)OC)c1ccccc1COc1cccc(OC(F)=C(c2ccc(C)c(C)c2)C(F)(F)F)c1 [Compound 65] | 91 | 33 | 94 | 99 | 16 | 90 | 100 | 99 | – | –
CNC(=O)/C(=N/OC)c1ccccc1COc1cccc(OC(F)=C(c2ccc(C)c(C)c2)C(F)(F)F)c1 [Compound 66] | 98 | 18 | 100 | 100 | 0 | 40 | 100 | 100 | 100 | 100
CO/C=C(/C(=O)OC)c1ccccc1COc1cccc(OC(F)=C(c2cc(C)cc(C)c2)C(F)(F)F)c1 [Compound 67] | 80 | 25 | 100 | 100 | 16 | 50 | – | 100 | – | –
CNC(=O)/C(=C/OC)c1ccccc1COc1cccc(OC(F)=C(c2cc(C)cc(C)c2)C(F)(F)F)c1 [Compound 68] | 0 | 22 | – | 0 | 0 | 0 | – | 56 | – | –
CNC(=O)/C(=N/OC)c1ccccc1COc1cccc(OC(F)=C(c2cc(C)cc(C)c2)C(F)(F)F)c1 [Compound 70] | 100 | 0 | 100 | 100 | 0 | 0 | 100 | 100 | 100 | 100
COC=C(C(=O)OC)c1ccccc1COc1cccc(OC(F)=C(c2cccc(OC)c2)C(F)(F)F)c1 [Compound 71] | 90 | 62 | 100 | 100 | 41 | 40 | 95 | 100 | – | –
CNC(=O)C(=COC)c1ccccc1COc1cccc(OC(F)=C(c2cccc(OC)c2)C(F)(F)F)c1 [Compound 72] | 0 | 33 | – | 0 | 0 | 33 | – | 0 | – | –
CON=C(C(=O)OC)c1ccccc1COc1cccc(OC(F)=C(c2cccc(OC)c2)C(F)(F)F)c1 [Compound 73] | 93 | 60 | 88 | 93 | 9 | 92 | 96 | 98 | – | –
CNC(=O)C(=NOC)c1ccccc1COc1cccc(OC(F)=C(c2cccc(OC)c2)C(F)(F)F)c1 [Compound 74] | 100 | 64 | 100 | 100 | 52 | 70 | 100 | 100 | 93 | 93
CNC(=O)C(=COC)c1ccccc1COc1cccc(OC(F)=C(c2ccc(OC)cc2)C(F)(F)F)c1 [Compound 75] | 0 | 33 | – | 0 | 0 | 40 | – | 0 | – | –
CON=C(C(=O)OC)c1ccccc1COc1cccc(OC(F)=C(c2ccc(OC)cc2)C(F)(F)F)c1 [Compound 76] | 63 | 44 | 96 | 99 | 0 | 90 | 99 | 96 | – | –
